This note sets out measurements from patent US20120225417A1, “Methods, Compositions and Kits for the Evaluation and Preservation of Sperm” (I'Alliance Boviteq Inc., priority 2011, published 2012).

Type in all cases: biochemical
In assay [1] the test system is 3′-5′ cAMP-PDE activity in bovine seminal plasma. Nature of the assay: 3′-5′ cAMP-PDE assay with family-specific PDE inhibitors in bovine seminal plasma. The settings on record: thawed bovine seminal plasma, papaverine 400 nM (FIG. 8). The protocol: Fresh ejaculated bovine sperm, at known concentrations, was transported for three hours at 18° C. Upon arrival specimens were centrifuged at 400×g during 10 minutes at room temperature to gently pull down spermatozoa. Supernatant was transferred and centrifuged again at 6 000×g at 4° C. during 20 minutes to pull down any remaining spermatozoa. Supernatant was then transferred and centrifuged at 6 000×g at 4° C. during 20 minutes to remove any remaining debris. Seminal plasma (SP) samples were kept on ice until used for PDE assay and stored at −80° C. for further characterization.
(§1) The cAMP enzymatic assay (PDE assay) was conducted as previously described (Sasseville, M. et al., (2006). BMC developmental biology 6, 47). Samples were directly subjected to PDE assay. 3′-5′ cAMP-PDE activity was assessed at 34° C. in 200 μL final volume using 1 μM cAMP as substrate (Thompson, W. J. et al., (1979). Adv Cyclic Nucleotide Res 10, 69-92) with minor modifications. […] Knowing the exact concentrations of spermatozoa in each SP sample, total 3′-5′ cAMP-PDE activity was reported as the quantity of cAMP (fMol) hydrolysed per minute per the number of spermatozoa (fMol/min/10^6 spz). […] To determine which PDE family contributes to total 3′-5′ cAMP-PDE activity, the activity measured in the presence of the respective inhibitors was subtracted from the total. […]

The test system of assay [2] is 3′-5′ cAMP-PDE activity in human spermatozoa. Nature of the assay: 3′-5′ cAMP-PDE assay with family-specific PDE inhibitors in human spermatozoa. Particulars: 95% fractionation method, papaverine 400 nM (FIG. 18). The protocol: Ejaculates were obtained by masturbation from healthy donors after a minimum of 2 days of sexual abstinence. After ejaculation, semen was kept at room temperature to allow liquefaction. To prepare human ejaculate, three different fractionation methods were used: “G2 method”, “40-80% fractionation” or “95% fractionation”.
For “G2 method”, according to the ejaculate volume, approximately 1 ml of semen was added to 5 ml of isotonic solution: HEPES-buffered saline (HBS: 25 mM Hepes, 130 mM NaCl, 4 mM KCl, 0.5 mM MgCl2, 14 mM fructose, pH 7.6) in a 15 mL falcon tube to wash the spermatozoa from the seminal plasma. […] Then, the samples were vortex-agitated for 30 sec and kept on the ice until ready to run the assay. The concentration of sperm cells was measured according to hemacytometer method. […]
The cAMP enzymatic assay (PDE assay) was conducted as previously described (Sasseville, M. et al., (2006). BMC developmental biology 6, 47). […] 3′-5′ cAMP-PDE activity was assessed at 34° C. in 200 μL final volume using 1 μM cAMP as substrate (Thompson, W. J. et al., (1979). Adv Cyclic Nucleotide Res 10, 69-92) with minor modifications. […] Knowing the exact concentrations of spermatozoa in each SP sample, total 3′-5′ cAMP-PDE activity was reported as the quantity of cAMP (fMol) hydrolysed per minute per the number of spermatozoa (fMol/min/10^6 spz). […]

Assay [3] relates to 3′-5′ cAMP-PDE activity in human seminal plasma. Kind of assay: 3′-5′ cAMP-PDE assay with family-specific PDE inhibitors in human seminal plasma. Particulars: fresh human seminal plasma; Rolipram 10 μM, Papaverine 400 nM (FIG. 19). The protocol: A certain amount of complete ejaculate was kept to isolate spermatozoa from seminal plasma. This portion was centrifuged at 400×g during 10 minutes at room temperature to gently pull down spermatozoa. Supernatant was transferred and centrifuged again at 6 000×g at 4° C. during 20 minutes to pull down any remaining spermatozoa. Supernatant was then transferred and centrifuged at 6 000×g at 4° C. during 20 minutes to remove any remaining debris. SP samples were kept on ice until used for PDE assay and stored at -80° C. for further characterization. The cAMP enzymatic assay (PDE assay) was conducted as previously described ([…]. et al., (2006). BMC developmental biology 6, 47). […] J. et al., (1979). Adv Cyclic Nucleotide Res 10, 69-92) with minor modifications. […] Measurements were also performed in the presence of PDE inhibitors: […] Cilostamide and Rolipram were purchased from Biomol. […] Each PDE assay was performed in triplicate for each experiment and each experiment was repeated at least three times. As described ([…]. et al., (2009). […] IBMX-sensitive PDE5 and PDE6 and IBMX-insensitive PDE9 activities are absent from these groups because cGMP is the specific substrate and then are not detected in the cAMP-PDE assay. […] J Dairy Sci 92, 3757-3765; […]., et al. (2007). Endocrinology 148, 1858-1867; Siuciak, J. A. et al., (2006). Neuropharmacology 51, 386-396).

The test system of assay [4] is 3′-5′ cAMP-PDE activity in bovine cauda epididymal plasma. Kind of assay: 3′-5′ cAMP-PDE assay in bovine cauda epididymal plasma. Particulars: thawed epididymal plasma 0.5 μL; Papaverine (400 μM) as printed (FIG. 5). The protocol:
Epididymis from sexually mature bulls was obtained from a local slaughterhouse. Immediately after slaughtering, testicles were kept on ice and brought to the laboratory within 3 hours. Epididymis was dissected and cleared from connective tissues. As already described (Frenette, G. et al., (2002). Biol Reprod 67, 308-313), fluid from the cauda epididymis was collected by retrograde flushing. Epididymal plasma was isolated according to the same centrifugations steps than the seminal plasma as described below.
as §1

On to `COc1ccc(Cc2nccc3cc(OC)c(OC)cc23)cc1OC` [Papaverine], for which the “Share of PDE activity in bovine seminal plasma that is papaverine-sensitive” value in assay [1] is on record as “more than 50%”. In addition, in assay [2], the “Share of cAMP-PDE activity that is papaverine-sensitive” value is “more than 50%”. In addition, the “Inhibitor-sensitive PDE activity in human seminal plasma (in words)” value in assay [3] is given as “low percentage”. Besides, the “Papaverine-sensitive PDE activity in bovine epididymal fluid (in words)” value in assay [4] is on record as “low”.
